Experimental data published in PMC9147192, “Small Molecule Arranged Thermal Proximity Coaggregation (smarTPCA)—A Novel Approach to Characterize Protein–Protein Interactions in Living Cells by Similar Isothermal Dose–Responses” (International Journal of Molecular Sciences, 2022).
pEC50: −log10 of the molar value.

Legend:
[1] = biological target: T1, FECH (Homo sapiens, UniProt P22830); experiment: TPP-CCR in living HL-60 cells; type: cell-based
T1 construct: endogenous in cells; host or cells: HL-60 (ATCC CCL-240)
T1 sequence (P22830 55-423): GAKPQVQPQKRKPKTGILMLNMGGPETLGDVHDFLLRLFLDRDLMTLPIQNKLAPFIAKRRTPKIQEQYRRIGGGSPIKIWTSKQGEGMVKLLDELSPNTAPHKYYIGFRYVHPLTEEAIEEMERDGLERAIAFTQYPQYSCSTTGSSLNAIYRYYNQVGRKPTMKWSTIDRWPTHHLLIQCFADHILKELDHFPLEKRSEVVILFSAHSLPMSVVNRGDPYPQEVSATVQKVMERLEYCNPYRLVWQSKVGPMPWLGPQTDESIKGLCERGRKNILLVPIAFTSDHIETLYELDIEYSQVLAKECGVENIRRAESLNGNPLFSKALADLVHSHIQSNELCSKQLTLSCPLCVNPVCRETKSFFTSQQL

[2] = biological target: T2, OGDH (Homo sapiens, UniProt Q02218); experiment: TPP-CCR in living HL-60 cells; type: cell-based
T2 construct: endogenous in cells; host or cells: HL-60 (ATCC CCL-240)
T2 sequence (Q02218 41-1023): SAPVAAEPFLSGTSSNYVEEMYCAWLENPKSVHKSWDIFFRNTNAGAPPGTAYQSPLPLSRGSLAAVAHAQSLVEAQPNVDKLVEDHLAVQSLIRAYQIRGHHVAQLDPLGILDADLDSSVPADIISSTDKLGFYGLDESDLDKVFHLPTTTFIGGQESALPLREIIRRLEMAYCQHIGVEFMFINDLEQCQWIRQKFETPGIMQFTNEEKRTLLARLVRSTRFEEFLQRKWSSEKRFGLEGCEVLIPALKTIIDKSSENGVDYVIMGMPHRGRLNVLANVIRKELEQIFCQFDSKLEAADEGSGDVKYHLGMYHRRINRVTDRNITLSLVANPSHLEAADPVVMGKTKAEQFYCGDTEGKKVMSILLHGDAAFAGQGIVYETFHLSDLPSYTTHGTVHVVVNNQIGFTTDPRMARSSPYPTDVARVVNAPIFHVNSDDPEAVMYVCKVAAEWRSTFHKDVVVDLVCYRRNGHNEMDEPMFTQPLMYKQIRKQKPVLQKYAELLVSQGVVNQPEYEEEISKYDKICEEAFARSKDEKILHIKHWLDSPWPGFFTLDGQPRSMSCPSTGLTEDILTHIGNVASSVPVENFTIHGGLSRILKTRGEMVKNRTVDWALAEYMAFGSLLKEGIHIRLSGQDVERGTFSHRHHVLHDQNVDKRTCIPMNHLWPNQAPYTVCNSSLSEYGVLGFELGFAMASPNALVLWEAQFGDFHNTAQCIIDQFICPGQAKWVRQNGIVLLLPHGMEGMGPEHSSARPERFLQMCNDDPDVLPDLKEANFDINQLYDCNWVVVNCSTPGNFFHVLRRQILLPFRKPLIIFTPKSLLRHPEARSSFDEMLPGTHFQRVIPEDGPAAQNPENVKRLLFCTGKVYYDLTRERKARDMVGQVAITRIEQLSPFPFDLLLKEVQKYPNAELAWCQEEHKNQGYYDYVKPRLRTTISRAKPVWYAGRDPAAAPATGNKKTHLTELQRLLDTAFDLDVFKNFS

[3] = living HL-60 cells, […] °C, TMT-MS

## Cc1cnc(Nc2ccc(F)cc2Cl)nc1-c1c[nH]c(C(=O)N[C@H](CO)c2cccc(Cl)c2)c1 [ERK 11e]
[1]; TPP-CCR, living cells, FECH
  Hill slope: 0.38
[1]; [3]
  pEC50: 6.20
  Hill slope (FECH): 0.38
[2]; TPP-CCR, living cells, OGDH
  Hill slope: 0.43
[2]; [3]
  pEC50: 6.38
  Hill slope (OGDH): 0.43
